Laboratory results taken from US20100215638A1, “METHOD FOR TREATMENT OF PROSTATE CANCER AND SCREENING OF PATIENTS BENEFITING FROM SAID METHOD” (VALTION TEKNILLINEN TUTKIMUSKESKUS, priority 2006, published 2010).
Like-named read-outs stand apart in the source and are kept apart here.

Tests used:
Type in all cases: cell-based, human
[1] = tested on: ERG-positive prostate cancer cell line VCaP; experiment: Bead-array gene expression with GSEA of MSigDB pathways
Description: Gene expression analysis by bead-arrays. Early passage VCaP and LNCaP cells were grown to approximately 70% confluence before treatments with 300 nM trichostatin A (Sigma) or 500 nM MS-275 (Sigma) for 6 and 12 hours. For androgen ablation, the cells were plated in androgen-deprived medium. 300 nM trichostatin A (Sigma) or 500 nM MS-275 (Sigma) were added for 6 hours and 12 hours before harvesting. Hormone-replacement treatment was performed by supplementing the full RPMI 1640 medium with 10% charcoal-stripped serum. Total RNA was extracted according to the manufacturer's protocol using Trizol reagent (Invitrogen, Carlsbad, Calif.). Integrity of the RNA prior to hybridization was monitored using a Bioanalyzer 2100 (Agilent, Santa Clara, Calif.) (according to manufacturer's instruction). […] The arrays were scanned with the BeadArray Reader (Illumina).
Statistical analysis. The raw data was quantile-normalized and analyzed by using the R/Bioconductor software (http://www.r-project.org/, http://www.bioconductor.org/). Mean for ERG signature genes for at least two replicates per condition was calculated and the treatment values were extracted from controls to illustrate the fold changes presented on Table 5. […]

[2] = tested on: ERG gene signature; experiment: Bead-array gene expression with GSEA of ERG gene signature reversal; details: 12 h treatment, 300 nM TSA or 500 nM MS-275
Description: Gene expression analysis by bead-arrays. Early passage VCaP and LNCaP cells were grown to approximately 70% confluence before treatments with 300 nM trichostatin A (Sigma) or 500 nM MS-275 (Sigma) for 6 and 12 hours. For androgen ablation, the cells were plated in androgen-deprived medium. 300 nM trichostatin A (Sigma) or 500 nM MS-275 (Sigma) were added for 6 hours and 12 hours before harvesting. Hormone-replacement treatment was performed by supplementing the full RPMI 1640 medium with 10% charcoal-stripped serum. Total RNA was extracted according to the manufacturer's protocol using Trizol reagent (Invitrogen, Carlsbad, Calif.). Integrity of the RNA prior to hybridization was monitored using a Bioanalyzer 2100 (Agilent, Santa Clara, Calif.) (according to manufacturer's instruction). 500 ng of purified total RNA was amplified with the TotalPrep Kit (Ambion, Austin, Tex.) and the biotin labelled cRNA was hybridized to Sentrix HumanRef-8 Expression BeadChips (Illumina, San Diego, Calif.). The arrays were scanned with the BeadArray Reader (Illumina).
Statistical analysis. The raw data was quantile-normalized and analyzed by using the R/Bioconductor software (http://www.r-project.org/, http://www.bioconductor.org/). Mean for ERG signature genes for at least two replicates per condition was calculated and the treatment values were extracted from controls to illustrate the fold changes presented on Table 5. Gene set enrichment analysis (GSEA) was performed for the HDAC inhibitor treatment and androgen ablation data with the GSEA software v2.0.1 (http://www.broad.mit.edu/gsea/). Our own previously defined ERG gene signature was used to evaluate the statistical significance of the signature reversal by HDAC inhibitors and androgen ablation (Table 6.). MSigDB gene sets were used for studying the pathways affected by HDAC inhibitors TSA and MS-275 in ERG-positive prostate cancer cell line VCaP (FIGS. 12 and 13).

[3] = tested on: DuCaP prostate cancer cell; experiment: Cell titer blue assay of cell number after TSA treatment; details: 48 h incubation, 384-well plates 2000 cells/well
Description: (§1) FIG. 6. Analysis of the effect of Trichostatin A (TSA) treatment on VCaP and DuCaP prostate cancer cell number by using cell titer blue assay. Briefly, cells were plated in low concentration on 384-well plates (2000 cells/well) and let to attach overnight. Drug containing medium was added and CTB assay measurement with Envision Plate reader were done after 48 h incubation. […] For drawing the figure, cell culture medium only containing well intensities were extracted from actual measurements. Each data point is represented by the mean value of three independent measurements (mean+S.D.). Drug concentrations are presented on x-axis and relative cell number (control level set to 1) on y-axis. Statistical significance ([…]) of the differences between cell amounts in treated wells in comparison to untreated control wells is indicated with star using Student's t-test assuming that the data is unpaired and variance is unequal.

[4] = tested on: VCaP prostate cancer cell; experiment: as above; details: 48 h incubation, 384-well plates 2000 cells/well
Description: as §1

## Nc1ccccc1NC(=O)c1ccc(CNC(=O)OCc2cccnc2)cc1 [MS-275]
[1]
  effect on pathways associated to ERG-positive prostate tumors: reverses the pathways associated to ERG-positive prostate tumors

## CC(/C=C/C(=O)NO)=C\[C@@H](C)C(=O)c1ccc(N(C)C)cc1 [TSA, Trichostatin A]
[2]
  ES (Enrichement score): −0.75
  Gene set (number of genes showing core enrichment/total number of genes in the ERG gene set): 29/47
  NES (Normalized enrichment score): −1.63
[1]; VCaP, GSEA with MSigDB gene sets
  effect on pathways associated to ERG-positive prostate tumors: reverses the pathways associated to ERG-positive prostate tumors
[3]
  effect on cell number (relative cell number, cell titer blue assay): clear dose dependent growth inhibition
[3]; listed as Trichostatin A
  effect on cell number (relative cell number, cell titer blue assay): strong responses
[4]
  effect on cell number (relative cell number, cell titer blue assay): clear dose dependent growth inhibition
[4]; listed as Trichostatin A
  effect on cell number (relative cell number, cell titer blue assay): strong responses
